Data reported in US8859588B2, “Substituted N-heteroaryl bipyrrolidine carboxamides, preparation and therapeutic use thereof” (SANOFI, priority 2010, dated 2014).

Target: T1, rhesus (Macacca Mulatta) H3 receptor (Macaca mulatta, UniProt Q865E1)
T1 construct: rhesus monkey (Macacca Mulatta) 445 amino acid H3 receptor; (Genbank #AY231164); expressed in transfected cells; host or cells: Flp-In T-REx 293 Cell Line (Invitrogen), pcDNA5/FRT/TO vector, induced with tetracycline; membrane preparation
Test: Rhesus H3 radioligand binding assay ([3H]-Methylhistamine displacement, WGA SPA)
Design: species or system rhesus monkey (Macacca Mulatta)
Settings: [3H]-Methylhistamine 2 nM; rhesus H3 membranes from Flp-In T-REx 293 cells; 25° C., 1 hour; Ki by Cheng-Prusoff equation
Description: Rhesus H3 membranes were prepared from the Flp-In T-REx 293 Cell Line (Invitrogen) stably transfected with pcDNA5/FRT/TO (Invitrogen) containing the rhesus monkey (Macacca Mulatta) 445 amino acid H3 receptor. (Genbank #AY231164). Stably transfected cultures were amplified in tissue culture flasks by standard tissue culture methods and induced to express rhesus H3 by exposure to 500 ng/ml tetracycline (Cellgro) for 24 hours. After induction, cells were dissociated from flasks utilizing Cell Stripper (Cellgro). Cells were centrifuged (1K×g, 5 min) and pellet frozen in an ethanol-dry ice bath to disrupt cell membranes. Frozen cell pellet was re-suspended in 5 mM HEPES (pH 7.4, Invitrogen) at 10 ml/1000 cm2 of harvested cells. The cell suspension was drawn through an 18 gauge needle (2-3×) followed by a 23 gauge needle (2-3×) to further disrupt cell membranes. The cell suspension was centrifuged (40K×g, 30 min). Cell membrane pellet was re-suspended in 5 mM HEPES (pH 7.4, Invitrogen) at a final protein concentration of 10 mg/ml. Rhesus H3 membranes were stored under liquid nitrogen prior to use in [3H]-Methylhistamine and GTPγS radioligand binding assays.
Rhesus H3 radioligand binding assay was performed using rhesus H3 receptor membranes (prepared as described above), [3H]-Methylhistamine (Perkin Elmer) and WGA SPA beads (wheat germ agglutinin scintillation proximity assay) beads (Amersham). The assay was performed in 96-well Opti-Plates (Packard). Each reaction contained 50 μl rhesus H3 membranes (20-30 μg total protein), 50 μl WGA SPA beads (0.1 μg) and 50 μl of 83 Ci/mmol [^3H]-Methylhistamine (final concentration 2 nM) and 50 μl of tested compound. The compounds of this invention and/or vehicle were diluted with binding buffer from 10 mM DMSO stocks. Assay plates were sealed with TopSeal (Perkin Elmer) and mixed on shaker (25° C., 1 hour). Assay plates were read on TopCount scintillation counter (Packard). Results were analyzed by Hill transformation and Ki values were determined by Cheng-Prusoff equation.

T1 sequence (Q865E1 1-445): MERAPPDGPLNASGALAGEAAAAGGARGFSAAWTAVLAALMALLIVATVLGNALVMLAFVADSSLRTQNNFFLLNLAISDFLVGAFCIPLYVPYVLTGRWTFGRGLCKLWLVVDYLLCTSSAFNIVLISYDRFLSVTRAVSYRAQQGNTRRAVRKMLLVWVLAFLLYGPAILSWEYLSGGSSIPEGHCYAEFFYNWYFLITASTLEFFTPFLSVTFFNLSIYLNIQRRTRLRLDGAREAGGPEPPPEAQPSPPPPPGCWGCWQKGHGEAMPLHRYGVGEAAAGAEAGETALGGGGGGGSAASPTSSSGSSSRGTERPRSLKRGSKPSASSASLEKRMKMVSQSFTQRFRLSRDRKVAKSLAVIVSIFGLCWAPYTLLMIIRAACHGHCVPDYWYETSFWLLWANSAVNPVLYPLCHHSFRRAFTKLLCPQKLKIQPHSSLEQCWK

SMILES	Ki
Cc1nc(N2CC[C@H](N3CCC[C@@H]3C)C2)ccc1NC(=O)c1ccccc1 [Example 7, N-[2-Methyl-6-((2S,3′S)-2-methyl-[1,3′]bipyrrolidinyl-1′-yl)-pyridin-3-yl]-benzamide]	0.00809 µM
Cc1nc(N2CC[C@@H](N3CCC[C@@H]3C)C2)ccc1NS(=O)(=O)c1ccc(F)cc1 [Example 12, 4-Fluoro-N-[2-methyl-6-((2S,3′R)-2-methyl-[1,3′]bipyrrolidinyl-1′-yl)-pyridin-3-yl]-benzenesulfonamide]	0.0296 µM
C[C@H]1CCCN1[C@H]1CCN(c2ccc(NC(=O)C3CCOCC3)nc2)C1 [Example 2, Tetrahydro-pyran-4-carboxylic acid [5-((2S,3′S)-2-methyl-[1,3′]bipyrrolidinyl-1′-yl)-pyridin-2-yl]-amide]	0.027 µM
Cc1ccc(F)cc1C(=O)Nc1ccc(N2CC[C@@H](N3CCC[C@@H]3C)C2)nc1C [Example 9, 5-Fluoro-2-methyl-N-[2-methyl-6-((2S,3′R)-2-methyl-[1,3′]bipyrrolidinyl-1′-yl)-pyridin-3-yl]-benzamide]	0.195 µM
Cc1nc(N2CC[C@H](N3CCC[C@@H]3C)C2)ccc1NC(=O)c1cccc2ccccc12 [Example 3, Naphthalene-1-carboxylic acid [2-methyl-6-((2S,3′S)-2-methyl-[1,3′]bipyrrolidinyl-1′-yl)-pyridin-3-yl]-amide]	0.00424 µM
Cc1nc(N2CC[C@H](N3CCC[C@@H]3C)C2)ccc1NS(=O)(=O)c1ccc(F)c(F)c1 [Example 6, 3,4-Difluoro-N-[2-methyl-6-((2S,3′S)-2-methyl-[1,3′]bipyrrolidinyl-1′-yl)-pyridin-3-yl]-benzenesulfonamide]	0.00251 µM
Cc1nc(N2CC[C@@H](N3CCC[C@@H]3C)C2)ccc1NS(=O)(=O)C1CC1 [Example 13, Cyclopropanesulfonic acid [2-methyl-6-((2S,3′R)-2-methyl-[1,3′]bipyrrolidinyl-1′-yl)-pyridin-3-yl]-amide]	0.0371 µM
CC(=O)N1CCC(C(=O)Nc2ccc(N3CC[C@@H](N4CCC[C@@H]4C)C3)nc2C)CC1 [Example 8, 1-Acetyl-piperidine-4-carboxylic acid [2-methyl-6-((2S,3R)-2-methyl-[1,3′]bipyrrolidinyl-1′-yl)-pyridin-3-yl]-amide]	0.00246 µM
Cc1nc(N2CC[C@@H](N3CCC[C@@H]3C)C2)ccc1NC(=O)c1cccs1 [Example 10, Thiophene-2-carboxylic acid [2-methyl-6-((2S,3′R)-2-methyl-[1,3′]bipyrrolidinyl-1′-yl)-pyridin-3-yl]-amide]	0.036 µM
Cc1nc(N2CC[C@@H](N3CCC[C@@H]3C)C2)ccc1NC(=O)c1c(C)noc1C [Example 11, 3,5-Dimethyl-isoxazole-4-carboxylic acid [2-methyl-6-((2S,3′R)-2-methyl-[1,3′]bipyrrolidinyl-1′-yl)-pyridin-3-yl]-amide]	0.084 µM
Cc1nc(N2CC[C@H](N3CCC[C@@H]3C)C2)ccc1NC(=O)C1CCOCC1 [Example 1, Tetrahydro-pyran-4-carboxylic acid [2-methyl-6-((2S,3′S)-2-methyl-[1,3′]bipyrrolidinyl-1′-yl)-pyridin-3-yl]-amide]	0.0024 µM
Cc1nc(N2CC[C@H](N3CCC[C@@H]3C)C2)ccc1NS(=O)(=O)C1CCCCC1 [Example 5, Cyclohexanesulfonic acid [2-methyl-6-((2S,3′S)-2-methyl-[1,3′]bipyrrolidinyl-1′-yl)-pyridin-3-yl]-amide]	0.0263 µM
Cc1nc(N2CC[C@H](N3CCC[C@@H]3C)C2)ccc1NC(=O)Cc1ccccc1 [Example 4, N-[2-Methyl-6-((2S,3′S)-2-methyl-[1,3′]bipyrrolidinyl-1′-yl)-pyridin-3-yl]-2-phenyl-acetamide]	0.0049 µM
